According to patent US5889013A, “Pyrimidine acyclonucleoside derivatives” (priority 1994, dated 1999):

Experiments:
[1] = tested on: HIV-1 (HTLV-IIIB strain); assay: Inhibitory activity for HIV-induced cytopathogenicity (MT-4 cells, MTT method); assay type: cell-based; conditions: Human immunodeficiency virus 1, IIIB, MT4, 144 h, read-out: 50% inhibitory concentration of HIV infection
Procedure: (§1) In RPMI 1640 culture medium supplemented with 10% heat-inactivated fetal bovine serum, 2 mM of L-glutamine, 100 U/mL of penicillin G and 100 μg/mL of streptomycin, MT-4 cells (HTLV-1 transformed T4-cell line) at a concentration of 1×10^4 /well in a flat-bottom, microtiter plate were infected with 500 TCID50 of HIV-1 (HTLV-IIIB strain). Immediately after virus infection, sample serially diluted with culture medium from stock solution prepared in dimethyl sulfoxide was added to each well in quadriplicate. After 6 days incubation at 37° C., the viability of mock and HIV-infected cells was determined by the 3-(4,5-dimethylthiazol-2-yl)-2,5-diphenyltetrazolium bromide (MTT) method. And also, the cytotoxicity of sample to MT-4 cells not infected with HIV was assessed in parallel with its antiviral activity under the same way as above.

[2] = Cytotoxicity to MT-4 cells not infected with HIV (MTT method); assay type: cell-based; conditions: human; MT-4 cells not infected with HIV, 6 days, 37° C., MTT; read-out: 50% cytotoxic concentration to MT-4 cells
Procedure: as §1

SMILES: CCc1c([Se]c2cccc(C)c2)n(COCCO)c(=S)[nH]c1=O [Compound 2, 5-ethyl-1-[(2-hydroxyethoxy)methyl]-6-[(3-methylphenyl)selenenyl]-2-thiouracil]
- IC50 [1]: 0.04 µM
- CC50 at 144 h [2]: 32 µM

SMILES: CCc1c([Se]c2cc(C)cc(C)c2)n(COCCO)c(=S)[nH]c1=O [Compound 3, 6-[(3,5-dimethylphenyl)selenenyl]-5-ethyl-1-[(2-hydroxyethoxy)methyl]-2-thiouracil]
- IC50 [1]: 0.03 µM
- CC50 at 144 h [2]: 32.5 µM

SMILES: Cc1cccc([Se]c2c(C(C)C)c(=O)[nH]c(=S)n2COCCO)c1 [Compound 5, 1-[(2-hydroxyethoxy)methyl]-5-isopropyl-6-[(3-methylphenyl)-selenenyl]-2-thiouracil]
- IC50 [1]: 0.038 µM
- CC50 at 144 h [2]: 31.7 µM

SMILES: Cc1cc(C)cc([Se]c2c(C(C)C)c(=O)[nH]c(=S)n2COCCO)c1 [Compound 6, 6-[(3,5-dimethylphenyl)selenenyl]-1-[(2-hydroxyethoxy)methyl]-5-isopropyl-2-thiouracil]
- IC50 [1]: 0.008 µM
- CC50 at 144 h [2]: 32.4 µM

SMILES: CCc1c([Se]c2cc(C)cc(C)c2)n(COCCO)c(=O)[nH]c1=O [Compound 9, 6-[(3,5-dimethylphenyl)selenenyl]-5-ethyl-1-[(2-hydroxyethoxy)-methyl]uracil]
- IC50 [1]: 0.015 µM
- CC50 at 144 h [2]: 34.5 µM

SMILES: Cc1cccc([Se]c2c(C(C)C)c(=O)[nH]c(=O)n2COCCO)c1 [Compound 11, 1-[(2-hydroxyethoxy)methyl]-5-isopropyl-6-[(3-methylphenyl)-selenenyl]uracil]
- IC50 [1]: 0.015 µM
- CC50 at 144 h [2]: 30.5 µM

SMILES: Cc1cc(C)cc([Se]c2c(C(C)C)c(=O)[nH]c(=O)n2COCCO)c1 [Compound 12, 6-[(3,5-dimethylphenyl)selenenyl]-1-[(2-hydroxyethoxy)methyl]-5-isopropyluracil]
- IC50 [1]: 0.0019 µM
- CC50 at 144 h [2]: 29.1 µM

SMILES: CCOCn1c([Se]c2ccccc2)c(CC)c(=O)[nH]c1=S [Compound 15, 1-(ethoxymethyl)-5-ethyl-6-(phenylselenenyl)-2-thiouracil]
- IC50 [1]: 0.024 µM
- CC50 at 144 h [2]: 26.1 µM

SMILES: CCOCn1c([Se]c2cccc(C)c2)c(CC)c(=O)[nH]c1=S [Compound 16, 1-(ethoxymethyl)-5-ethyl-6-[(3-methylphenyl)selenenyl]-2-thiouracil]
- IC50 [1]: 0.008 µM
- CC50 at 144 h [2]: 24.8 µM

SMILES: CCOCn1c([Se]c2cc(C)cc(C)c2)c(CC)c(=O)[nH]c1=S [Compound 17, 6-[(3,5-dimethylphenyl)selenenyl]-1-(ethoxymethyl)-5-ethyl-2-thiouracil]
- IC50 [1]: 0.008 µM
- CC50 at 144 h [2]: 28.8 µM

SMILES: CCOCn1c([Se]c2cc(F)cc(F)c2)c(CC)c(=O)[nH]c1=S [Compound 18, 6-[(3,5-difluorophenyl)selenenyl]-1-(ethoxymethyl)-5-ethyl-2-thiouracil]
- IC50 [1]: 0.014 µM
- CC50 at 144 h [2]: 7.8 µM

SMILES: CCc1c([Se]c2ccccc2)n(COCc2ccccc2)c(=S)[nH]c1=O [Compound 19, 1-[(benzyloxy)methyl)-5-ethyl-6-(phenylselenenyl)-2-thiouracil]
- IC50 [1]: 0.004 µM
- CC50 at 144 h [2]: 25.1 µM

SMILES: CCc1c([Se]c2cccc(C)c2)n(COCc2ccccc2)c(=S)[nH]c1=O [Compound 20, 1-[(benzyloxy)methyl]-5-ethyl-6-[(3-methylphenyl)selenenyl]-2-thiouracil]
- IC50 [1]: 0.0008 µM
- CC50 at 144 h [2]: 43.4 µM

SMILES: CCc1c([Se]c2cc(C)cc(C)c2)n(COCc2ccccc2)c(=S)[nH]c1=O [Compound 21, 1-[(benzyloxy)methyl]-6-[(3,5-dimethylphenyl)selenenyl]-5-ethyl-2-thiouracil]
- IC50 [1]: 0.0017 µM
- CC50 at 144 h [2]: 24.1 µM

SMILES: CCOCn1c([Se]c2ccccc2)c(C(C)C)c(=O)[nH]c1=S [Compound 22, 1-(ethoxymethyl)-5-isopropyl-6-(phenylselenenyl)-2-thiouracil]
- IC50 [1]: 0.0015 µM
- CC50 at 144 h [2]: 30.1 µM

SMILES: CCOCn1c([Se]c2cccc(C)c2)c(C(C)C)c(=O)[nH]c1=S [Compound 23, 1-(ethoxymethyl)-5-isopropyl-6-[(3-methylphenyl)selenenyl]-2-thiouracil]
- IC50 [1]: 0.0036 µM
- CC50 at 144 h [2]: 30.6 µM
